Assay results published in the supplement of paper PMC10307832.

Legend:
Assay in all cases: relative viability (nuclei count vs DMSO), 5 days (fraction); higher = more cells survive
[1] = compound: C1CC1C(=O)NC2=NNC3=C2C=CC(=C3)C4=CC(=CC=C4)C(=O)NC5CC5 [XMD13-2] + CC1(C)CCC(c2ccc(Cl)cc2)=C(CN2CCN(c3ccc(C(=O)NS(=O)(=O)c4ccc(N[C@H](CCN5CCOCC5)CSc5ccccc5)c(S(=O)(=O)C(F)(F)F)c4)cc3)CC2)C1 [Navitoclax] (partner 0.5 µM)
How it was run: (§1)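 Values are medians from duplicate plates. Each reflects relative viability, defined as the nuclei count of treated wells over that of vehicle wells. Lung cancer cell lines in 1536-well plates were pin-tool dosed one day after seeding with one drug alone or with a fixed anchor-drug dose plus five library-drug doses (not always all listed) in √10 steps, then fixed, stained and imaged at 4× after 5 days.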

[2] = compound: Cc1ccc(C(=O)Nc2cccc(C(F)(F)F)c2)cc1Nc1cncc(C(N)=O)c1 [ALW-II-49-7] + CC1(C)CCC(c2ccc(Cl)cc2)=C(CN2CCN(c3ccc(C(=O)NS(=O)(=O)c4ccc(N[C@H](CCN5CCOCC5)CSc5ccccc5)c(S(=O)(=O)C(F)(F)F)c4)cc3)CC2)C1 [Navitoclax] (partner 0.5 µM)
How it was run: as §1

[3] = compound: Cc1ccc(C(=O)Nc2cccc(C(F)(F)F)c2)cc1Nc1cncc(C(N)=O)c1 [ALW-II-49-7] + N=C(N)NC(=N)NCCc1ccccc1 [Phenformin] (partner 250 µM)
How it was run: as §1

[4] = compound: Cc1ccc(C(=O)Nc2cccc(C(F)(F)F)c2)cc1Nc1cncc(C(N)=O)c1 [ALW-II-49-7] + C[C@]1(O)C[C@@H](c2nc(-c3ccc4ccc(-c5ccccc5)nc4c3)c3c(N)nccn32)C1 [Linsitinib] (partner 1 µM)
How it was run: as §1

Cell Line	relative viability ([1]; first compound 0.05 µM)	relative viability ([1]; first compound 0.1581 µM)	relative viability ([1]; first compound 0.5 µM)	relative viability ([1]; first compound 1.581 µM)	relative viability ([1]; first compound 5 µM)	relative viability ([2]; first compound 0.08 µM)	relative viability ([2]; first compound 0.253 µM)	relative viability ([2]; first compound 0.8 µM)	relative viability ([2]; first compound 2.53 µM)	relative viability ([2]; first compound 8 µM)	relative viability ([3]; first compound 0.08 µM)	relative viability ([3]; first compound 0.253 µM)	relative viability ([3]; first compound 0.8 µM)	relative viability ([3]; first compound 2.53 µM)	relative viability ([3]; first compound 8 µM)	relative viability ([4]; first compound 0.08 µM)	relative viability ([4]; first compound 0.253 µM)	relative viability ([4]; first compound 0.8 µM)	relative viability ([4]; first compound 2.53 µM)	relative viability ([4]; first compound 8 µM)
PC-3 [JPC-3]	0.819	0.843	0.827	0.781	0.693	0.693	0.891	0.757	0.816	0.82	0.486	0.461	0.456	0.448	0.452	1.01	0.914	0.935	0.995	0.952
HCC-44	1.01	1.03	1.12	0.949	1	1.12	0.958	0.988	0.891	1.06	0.261	0.203	0.231	0.277	0.211	0.6	0.658	0.686	0.619	0.839
NCI-H2405	0.871	0.727	0.9	0.767	0.916	0.761	0.974	0.779	0.241	0.735	0.389	0.411	0.343	0.351	0.358	0.892	1.01	0.958	0.376	0.9
LXF-289	0.965	0.956	0.988	0.914	0.93	0.945	0.932	0.99	1.05	0.99	0.515	0.554	0.556	0.536	0.526	0.935	0.958	1.04	1.1	1.09
LOU-NH91	0.752	0.688	0.715	0.696	0.769	0.642	0.733	0.623	0.345	0.604	0.698	0.671	0.621	0.596	0.633	0.928	0.97	0.93	0.528	0.977
A549	1.53	1.23	1.13	1.16	1.17	1.2	1.21	1.33	1.15	1.21	0.19	0.125	0.117	0.0978	0.201	0.654	0.511	0.551	0.263	0.481
H3255	0.709	0.564	0.518	0.444	0.526	0.581	0.541	0.375	0.313	0.538	0.442	0.394	0.373	0.331	0.329	0.832	0.892	0.94	0.884	0.9
NCI-H1395	1.25	1.16	1.23	1.11	1.1	1.28	1.16	1.01	0.307	1.22	0.438	0.512	0.419	0.475	0.428	1.09	1.22	1.11	0.305	1.08
LC-2-ad	0.772	0.503	0.519	0.368	0.375	0.445	0.463	0.37	0.341	0.42	0.478	0.555	0.58	0.638	0.531	0.834	0.86	0.764	0.86	0.836
NCI-H838	1.26	1.16	1.13	1.22	1.18	1.12	1.42	1.17	1.14	1.17	0.412	0.45	0.628	0.626	0.442	1.06	1.08	1.06	1.14	1.15
Calu-6	0.915	0.829	0.808	0.776	0.548	0.814	0.84	0.731	0.591	0.636	–	–	–	–	–	0.987	0.847	0.903	0.881	0.852
LCLC-97TM1	0.475	0.456	0.278	0.409	0.227	0.628	0.334	0.57	0.131	0.431	0.44	0.425	0.451	0.393	0.459	0.19	0.171	0.174	0.176	0.155
HCC-15	0.792	0.661	0.704	0.725	0.535	0.768	0.772	0.695	0.824	0.729	0.488	0.433	0.456	0.544	0.399	0.963	0.931	0.973	0.971	0.947
